Experimental data taken from patent US11918662B2, “Heterocyclic compounds and imaging agents for imaging huntingtin protein” (CHDI Foundation, Inc., priority 2020, dated 2024).
Where two headings read alike, the source gives them in different places.

Molecular target: T1, MBP-HTT(1-89)Q46-His(6×) (“Exon1-Q46”) protein aggregates (Homo sapiens, UniProt P42858, INS38QQQQQQQQQQQQQQQQQQQQQQQQQ)
T1 construct: MBP-HTT(1-89)Q46-His(6×); His(6×) (C); made in house
Experiment: Exon1-Q46 Radioligand Binding Assay
Method: Exon1-Q46 Radioligand Binding Assay
For experiments 30 μM MBP-Exon1-Q46 was incubated with 150 μg/mL thrombin in assay buffer (150 mM NaCl, 50 mM Tris pH 8.0) and 2 mM CaCl2 for 16 hours at 37° C. Aggregated Exon1-Q46 was pelleted by centrifugation for 5 minutes at 13,000 rpm in a bench top centrifuge and re-dissolved in the same volume of assay buffer. […] For the RBA, Q46 protein aggregates and test compounds were pre-incubated in assay buffer for 20 minutes at room temperature, in 100 μL/well in a 96-well plate (pp, round bottom). Then, ligand was added in 50 μL/well and incubated for 60 minutes at 37° C. Final assay concentrations were […] test compound, 1 μM Exon1-Q46 protein (equivalent monomer concentration) and 0.3 nM ligand [^3H3-methyl]-5-((5-methoxypyridin-2-yl)methoxy)-2-(pyrazin-2-yl)benzo[d]oxazole. Samples were transferred onto GF/B filter plates and washed 2× with 200 μL PBS using a Filtermate Harvester. After drying filter plates for 1 hour at 55° C., the back of the plates were sealed with foil and 30 μL/well scintillation fluid (Packard MicroScint 40) added, incubated for 15 minutes in the dark and counted in a MicroBeta reader. […] IC50 values were determined with a sigmoidal inhibition model with four variables (top, bottom, slope, IC50) in a global fit using the normalized replicate data.

[1] = displacement of 0.3 nM [3H3-methyl]-5-((5-methoxypyridin-2-yl)methoxy)-2-(pyrazin-2-yl)benzo[d]oxazole from 1 μM aggregated Exon1-Q46, 60 minutes at 37° C., read-out: Potency Range (IC50)

T1 sequence (P42858 with tags, fused parts or gaps with the stated changes limits assumed): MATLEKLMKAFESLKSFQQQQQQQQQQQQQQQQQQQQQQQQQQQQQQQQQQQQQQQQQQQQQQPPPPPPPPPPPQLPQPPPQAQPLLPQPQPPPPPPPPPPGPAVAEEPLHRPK

IC50 [1]	IC50	Compound
< 100 nM	–	O=C(CCn1c(=O)c2cccn2c2ccc(F)cc21)Nc1ccncc1 [Example 3-18]
< 100 nM	–	O=C(CCn1c(=O)c2cccn2c2ccc(F)cc21)Nc1ccccn1 [Example 3-19]
< 100 nM	–	COc1cccc(NC(=O)CCn2c(=O)c3cccn3c3ccc(F)cc32)c1 [Example 3-20]
< 100 nM	–	Cc1cccc(NC(=O)CCn2c(=O)c3cccn3c3ccc(F)cc32)c1 [Example 3-21]
< 100 nM	–	O=C(CCn1c(=O)c2cccn2c2ccc(F)cc21)Nc1ccccc1 [Example 3-22]
< 100 nM	–	O=C(CCn1c(=O)c2cccn2c2ccc(F)cc21)Nc1cccnc1 [Example 3-23]
< 100 nM	–	Cc1ccc(NC(=O)CCn2c(=O)c3cccn3c3ccc(F)cc32)nc1 [Example 3-24]
< 100 nM	–	O=C(CCn1c(=O)c2cccn2c2ccc(F)cc21)Nc1cccc(Cl)c1 [Example 3-25]
< 100 nM	–	O=C(CCn1c(=O)c2cccn2c2ccc(F)cc21)Nc1ccc(Cl)cc1 [Example 3-26]
< 100 nM	–	Cc1ccccc1NC(=O)CCn1c(=O)c2cccn2c2ccc(F)cc21 [Example 3-27]
< 100 nM	–	O=C(CCn1c(=O)c2cccn2c2ccc(F)cc21)NCc1ccccc1 [Example 3-28]
< 100 nM	–	COC1CCC(NC(=O)CCn2c(=O)c3cccn3c3ccc(F)cc32)CC1 (stereo not drawn) [Example 3-29]
< 100 nM	–	O=C(CCn1c(=O)c2cccn2c2ccc(F)cc21)NCCc1ccccc1 [Example 3-30]
< 100 nM	–	O=C(CCn1c(=O)c2cccn2c2ccc(F)cc21)N1Cc2ccccc2C1 [Example 3-31]
< 100 nM	–	CC1CCC(NC(=O)CCn2c(=O)c3cccn3c3ccc(F)cc32)CC1 (stereo not drawn) [Example 3-32]
< 100 nM	–	O=C(CCn1c(=O)c2cccn2c2ccc(F)cc21)NCCc1cccnc1 [Example 3-33]
< 100 nM	–	O=C(CCn1c(=O)c2cccn2c2ccc(F)cc21)NC1CCCCC1 [Example 3-34]
< 100 nM	–	O=C(CCn1c(=O)c2cccn2c2ccc(F)cc21)NCC1CCCCC1 [Example 3-35]
< 100 nM	–	CN(C)C(=O)CCn1c(=O)c2cccn2c2ccc(F)cc21 [Example 3-36]
< 100 nM	–	O=C(CCn1c(=O)c2cccn2c2ccc(F)cc21)NC1CCCC1 [Example 3-37]
< 100 nM	–	CCNC(=O)CCn1c(=O)c2cccn2c2ccc(F)cc21 [Example 3-38]
100 to 500 nM	–	CN(C)CCNC(=O)CCn1c(=O)c2cccn2c2ccc(F)cc21 [Example 3-39]
< 100 nM	–	COC1CCN(C(=O)CCn2c(=O)c3cccn3c3ccc(F)cc32)C1 (stereo not drawn) [Example 3-40]
< 100 nM	–	O=C(CCn1c(=O)c2cccn2c2ccc(F)cc21)N1CCCC(C(F)(F)F)C1 (stereo not drawn) [Example 3-41]
< 100 nM	–	O=C(CCn1c(=O)c2cccn2c2ccc(F)cc21)N1CCC(C(F)(F)F)CC1 [Example 3-42]
< 100 nM	–	O=C(CCn1c(=O)c2cccn2c2ccc(F)cc21)N1CCCC1 [Example 3-43]

IC50 [1]	IC50	Compound
< 100 nM	–	O=C(CCn1c(=O)c2cccn2c2ccc(F)cc21)N1CCc2ccccc2C1 [Example 3-44]
< 100 nM	–	CC1CCC(N(C)C(=O)CCn2c(=O)c3cccn3c3ccc(F)cc32)CC1 (stereo not drawn) [Example 3-45]
< 100 nM	–	O=C(CCn1c(=O)c2cccn2c2ccc(F)cc21)N1CCc2ccccc21 [Example 3-46]
< 100 nM	–	O=C(CCn1c(=O)c2cccn2c2ccc(F)cc21)N1CCCc2ccccc21 [Example 3-47]
< 100 nM	–	COc1cc2c(cn1)CCN(C(=O)CCn1c(=O)c3cccn3c3ccc(F)cc31)C2 [Example 3-48]
< 100 nM	–	Cn1c2c(ccc1=O)CN(C(=O)CCn1c(=O)c3cccn3c3ccc(F)cc31)CC2 [Example 3-49]
< 100 nM	–	O=C(CCn1c(=O)c2cccn2c2ccc(F)cc21)N1CCc2ncccc2C1 [Example 3-50]
< 100 nM	–	O=C(CCn1c(=O)c2cccn2c2ccc(F)cc21)N1CCc2cnccc2C1 [Example 3-51]
< 100 nM	–	O=C(CCn1c(=O)c2cccn2c2ccc(F)cc21)N1CCc2ccncc2C1 [Example 3-52]
< 100 nM	–	O=C(CCn1c(=O)c2cccn2c2ccc(F)cc21)N1CCc2cccnc21 [Example 3-53]
< 100 nM	–	O=C(CCn1c(=O)c2cccn2c2ccc(F)cc21)N1Cc2ccncc2C1 [Example 3-54]
< 100 nM	–	O=C(CCn1c(=O)c2cccn2c2ccc(F)cc21)N1Cc2cccnc2C1 [Example 3-55]
< 100 nM	–	O=C(CCn1c(=O)c2cccn2c2ccc(F)cc21)N1CCc2cccnc2C1 [Example 3-56]
< 100 nM	–	O=C(CCn1c(=O)c2cccn2c2ccc(F)cc21)N1CCc2ccncc21 [Example 3-57]
< 100 nM	–	O=C(CCn1c(=O)c2cccn2c2ccc(F)cc21)N1CCc2cnccc21 [Example 3-58]
< 100 nM	–	O=C(CCn1c(=O)c2cccn2c2ccc(F)cc21)N1CCc2ncccc21 [Example 3-59]
< 100 nM	–	COc1ccc(NC(=O)CCn2c(=O)c3c(C)ccn3c3ccc(F)cc32)nc1 [Example 3-60]
< 100 nM	–	COc1ccc(NC(=O)CCn2c(=O)c3c(Cl)ccn3c3ccc(F)cc32)nc1 [Example 3-61]
< 100 nM	–	O=C(CCn1c(=O)c2cc(F)cn2c2ccc(F)cc21)NCc1ccccn1 [Example 3-62]
< 100 nM	–	Cc1ccc(CNC(=O)CCn2c(=O)c3cc(F)cn3c3ccc(F)cc32)nc1 [Example 3-63]
< 100 nM	–	O=C(CCn1c(=O)c2cc(F)cn2c2ccc(F)cc21)N1Cc2ccncc2C1 [Example 3-64]
< 100 nM	–	O=C(CCn1c(=O)c2cc(F)cn2c2ccc(F)cc21)N1Cc2cccnc2C1 [Example 3-65]
< 100 nM	–	COc1ccc(NC(=O)CCn2c(=O)c3cc(F)cn3c3ccc(F)cc32)nc1 [Example 3-66]
< 100 nM	–	COc1ccc(NC(=O)CCn2c(=O)c3cc(C)cn3c3ccc(F)cc32)nc1 [Example 3-67]
< 100 nM	–	Cc1ccc(NC(=O)CCn2c(=O)c3cccn3c3ccccc32)cn1 [Example 3-68]
100 to 500 nM	–	Cc1ccc(NC(=O)CCNc2cc(F)ccc2-n2cccn2)cc1 [Example 3-69]

IC50 [1]	IC50	Compound
< 100 nM	–	Cc1ccc(NC(=O)CCCn2c(=O)c3cccn3c3ncccc32)cc1 [Example 4-1]
< 100 nM	–	COc1ccc(NC(=O)CCCn2c(=O)c3cccn3c3ncccc32)cc1 [Example 4-2]
< 100 nM	–	COc1cccc(NC(=O)CCCn2c(=O)c3cccn3c3ncccc32)c1 [Example 4-3]
< 100 nM	–	COc1ccnc(NC(=O)CCCn2c(=O)c3cccn3c3ncccc32)c1 [Example 4-4]
< 100 nM	–	COc1cccc(NC(=O)CCCn2c(=O)c3cccn3c3cccnc32)c1 [Example 4-5]
< 100 nM	–	Cc1ccc(NC(=O)CCCn2c(=O)c3cccn3c3cccnc32)cc1 [Example 4-6]
< 100 nM	–	COc1ccc(NC(=O)CCCn2c(=O)c3cccn3c3cccnc32)cc1 [Example 4-7]
< 100 nM	–	COc1ccnc(NC(=O)CCCn2c(=O)c3cccn3c3cccnc32)c1 [Example 4-8]
< 100 nM	–	COc1ccc(NC(=O)CCCn2c(=O)c3cccn3c3cccnc32)nc1 [Example 4-9]
< 100 nM	–	O=C(CCCn1c(=O)c2cccn2c2cccnc21)NC1CCCCCC1 [Example 4-10]
< 100 nM	–	Cc1ccc(NC(=O)CCCn2c(=O)c3cccn3c3ccccc32)cc1 [Example 5-1]
< 100 nM	–	COc1ccc(NC(=O)CCCn2c(=O)c3cccn3c3ccccc32)cc1 [Example 5-2]
< 100 nM	–	COc1cccc(NC(=O)CCCn2c(=O)c3cccn3c3ccccc32)c1 [Example 5-3]
< 100 nM	–	COc1ccnc(NC(=O)CCCn2c(=O)c3cccn3c3ccccc32)c1 [Example 5-4]
–	< 100 nM	COc1ccc(NC(=O)CCCn2c(=O)c3cccn3c3ccccc32)nc1 [Example 5-5]
< 100 nM	–	COc1ccc2c(c1)n(CCCC(=O)Nc1ccc(C)cc1)c(=O)c1cccn12 [Example 5-6]
< 100 nM	–	COc1ccc(NC(=O)CCCn2c(=O)c3cccn3c3ccc(OC)cc32)cc1 [Example 5-7]
< 100 nM	–	COc1cccc(NC(=O)CCCn2c(=O)c3cccn3c3ccc(OC)cc32)c1 [Example 5-8]
< 100 nM	–	COc1ccc(NC(=O)CCCn2c(=O)c3cccn3c3ccc(OC)cc32)nc1 [Example 5-9]
< 100 nM	–	COc1ccnc(NC(=O)CCCn2c(=O)c3cccn3c3ccc(OC)cc32)c1 [Example 5-10]
< 100 nM	–	COc1cccc(NC(=O)CCCn2c(=O)c3nccn3c3ccc(F)cc32)c1 [Example 5-11]
< 100 nM	–	Cc1ccc(NC(=O)CCCn2c(=O)c3nccn3c3ccc(F)cc32)cc1 [Example 5-12]
100 to 500 nM	–	COc1ccnc(NC(=O)CCCn2c(=O)c3nccn3c3ccc(F)cc32)c1 [Example 5-13]
< 100 nM	–	COc1ccc(NC(=O)CCCn2c(=O)c3nccn3c3ccc(F)cc32)nc1 [Example 5-14]
100 to 500 nM	–	O=C(CCCn1c(=O)c2cccn2c2ccccc21)NC1CCCCCC1 [Example 5-15]
< 100 nM	–	O=C(CCCn1c(=O)c2cccn2c2ccccc21)N1CCCCC1 [Example 5-18]
